{"source": "patent US20090291928A1", "about": "“COMPOSITION FOR AMELIORATION/PREVENTION OF ADVERSE SIDE EFFECT IN STEROID THERAPY” (AJINOMOTO CO., INC., priority 2006, published 2009)", "system": "dexamethasone administered rat", "assay": "Muscular atrophy prophylactic effect of BCAA in dexamethasone administered rat (Example 1)", "format": "in vivo", "settings": "effect of dexamethasone administration itself, 600 μg/kg i.p. 5 days", "protocol": "Dexamethasone (600 μg/kg) was intraperitoneally administered to rats (SD; 10-11-week-old) for 5 consecutive days. An isoleucine, leucine and valine (weight ratio 1:2:1.2) blend (BCAA) administration group was orally administered with 0.75 g/kg of BCAA above simultaneously for 5 consecutive days. A vehicle group was orally administered with distilled water consecutively in the same manner.\nOn day 5, the rats were autopsied and analyzed for muscular strength function evaluation, blood glucose level and plasma insulin level using a feed intake, body weight profile, muscle weight, grip strength measurement apparatus.\nAs the control group, pair-feeding normal rats were used."}
{"smiles": "C[C@@H]1C[C@H]2[C@@H]3CCC4=CC(=O)C=C[C@]4(C)[C@@]3(F)[C@@H](O)C[C@]2(C)[C@@]1(O)C(=O)CO", "note": "[dexamethasone]", "values": [{"measurement": "blood glucose level", "setting": "SD rats (FIG. 4)", "value": "increased"}, {"measurement": "insulin level", "setting": "SD rats (FIG. 5)", "value": "increased"}]}
